Reference: patent publication US20240150334A1, “HSD17B13 INHIBITORS AND/OR DEGRADERS” (Pfizer Inc., priority 2022, published 2024)
Where a name gives a salt, the structure may show the parent alone.

Molecular target: wild type human HSD17B13 (Homo sapiens (Human), UniProt Q7Z5P4)
Experiment: HEK_Beta-Est LCMS_IC50_Tekcel, whole-cell HEK-HSD17B13 inhibition assay, estrone production by LCMS
Format: cell-based
Details: geometric mean, HEK cells stably expressing wild type human HSD17B13, 25 μM FAC beta-estradiol, read-out: HEK_Beta-Est LCMS_IC50—Tekcel GMean IC50
Description: HEK_Beta-Est LCMS_IC50_Tekcel
Inhibition potency of test compounds was determined using a whole-cell HEK-HSD17B13 inhibition assay, utilizing a LCMS readout.
HSD17B13 uses the oxidized form of nicotinamide adenine dinucleotide (NAD+) as a cofactor during metabolism of beta-estradiol (substrate), converting NAD+ to the reduced form (NADH) and beta-estradiol to its product (estrone). Estrone production is quantified by LCMS, and used as a measure of HSD17B13 enzyme activity.
([…]: 5% CO2). […] Growth media was then removed from the cell plates and replaced with 10 μL of 2×FAC test compound, and incubated for 1 hour (with lid) at 37° C. […] The reaction was incubated for 2 hours (with lid) at 37° C. […] Amount of product (estrone) was then quantified by LCMS. Data expressed as product area ratio (PAR) were then normalized to control wells using Activity Base (IDBS). Zero percent effect (ZPE) was defined as PAR generated from uninhibited HSD17B13 (vehicle control).

Sequence of wild type human HSD17B13 (Q7Z5P4 20-300): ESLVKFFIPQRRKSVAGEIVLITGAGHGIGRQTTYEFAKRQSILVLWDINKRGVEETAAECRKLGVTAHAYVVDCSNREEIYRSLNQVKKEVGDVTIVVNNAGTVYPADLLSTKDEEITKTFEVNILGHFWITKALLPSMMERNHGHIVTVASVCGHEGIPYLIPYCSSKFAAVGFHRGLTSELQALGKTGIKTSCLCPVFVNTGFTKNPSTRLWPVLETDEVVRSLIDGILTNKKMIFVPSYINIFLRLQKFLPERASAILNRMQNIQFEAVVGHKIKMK

O=C(NC[C@H]1CC[C@H](n2cc3ccc(-c4cnc(C(F)(F)F)cn4)cc3n2)CC1)c1cc(F)c(O)c(F)c1 [Example 78, 3,5-difluoro-4-hydroxy-N-{[(1r,4r)-4-{6-[5-(trifluoromethyl)pyrazin-2-yl]-2H-indazol-2-yl}cyclohexyl]methyl} benzamide]
IC50: 0.19 µM

O=C(NC[C@H]1CC[C@H](n2cc3ccc(-c4ccns4)cc3n2)CC1)c1cc(F)c(O)c(F)c1 [Example 83, 3,5-difluoro-4-hydroxy-N-({(1r,4r)-4-[6-(1,2-thiazol-5-yl)-2H-indazol-2-yl]cyclohexyl}methyl) benzamide]
IC50: 0.094 µM

Cc1nnc(-c2ccc3cn([C@H]4CC[C@H](CNC(=O)c5cc(F)c(O)c(F)c5)CC4)nc3c2)s1 [Example 102, 3,5-difluoro-4-hydroxy-N-({(1r,4r)-4-[6-(5-methyl-1,3,4-thiadiazol-2-yl)-2H-indazol-2-yl]cyclohexyl}methyl) benzamide, ammonium salt]
IC50: 0.2 µM

O=C(NC[C@H]1CC[C@H](n2cc3ccc(-c4cnn(C(CO)CCl)c4)cc3n2)CC1)c1cc(F)c(O)c(F)c1 (stereo partly shown) [Example 164, N-{[(1r,4r)-4-{6-[1-(1-chloro-3-hydroxypropan-2-yl)-1H-pyrazol-4-yl]-2H-indazol-2-yl}cyclohexyl]methyl}-3,5-difluoro-4-hydroxybenzamide, trifluoroacetate salt]
IC50: 0.23 µM

O=C(NC[C@H]1CC[C@H](n2cc3cc(Cl)ccc3n2)CC1)c1cc(F)c(O)c(F)c1F [Example 26, N-{[(1r,4r)-4-(5-chloro-2H-indazol-2-yl)cyclohexyl]methyl}-2,3,5-trifluoro-4-hydroxybenzamide]
IC50: 0.19 µM

O=C(NC[C@]12CC[C@](n3cc4ccc(Br)cc4n3)(CC1)CC2)c1cc(F)c(O)c(F)c1 [Example 205, N-{[4-(6-bromo-2H-indazol-2-yl)bicyclo[2.2.2]octan-1-yl]methyl}-3,5-difluoro-4-hydroxybenzamide]
IC50: 0.22 µM

O=C(NC[C@H]1CC[C@H](n2cc3ccc(-c4ncc5cc[nH]c5n4)cc3n2)CC1)c1cc(F)c(O)c(F)c1 [Example 97, 3,5-difluoro-4-hydroxy-N-({(1r,4r)-4-[6-(7H-pyrrolo[2,3-d]pyrimidin-2-yl)-2H-indazol-2-yl]cyclohexyl}methyl) benzamide]
IC50: 0.3 µM

Cn1cc(-c2ccc3cn([C@]45CC[C@](CNC(=O)c6cc(F)c(O)c(F)c6)(CC4)CC5)nc3c2)cn1 [Example 204, 3,5-difluoro-4-hydroxy-N-({4-[6-(1-methyl-1H-pyrazol-4-yl)-2H-indazol-2-yl]bicyclo[2.2.2]octan-1-yl}methyl)benzamide]
IC50: 0.099 µM

O=C(NC[C@H]1CC[C@H](n2cc3cc(-c4ncccn4)ccc3n2)CC1)c1cc(F)c(O)c(F)c1 [Example 154, 3,5-difluoro-4-hydroxy-N-({(1r,4r)-4-[5-(pyrimidin-2-yl)-2H-indazol-2-yl]cyclohexyl}methyl) benzamide]
IC50: 0.11 µM

O=C(NC[C@H]1CC[C@H](n2cc3cc(-c4cscn4)ccc3n2)CC1)c1cc(F)c(O)c(F)c1 [Example 155, 3,5-difluoro-4-hydroxy-N-({(1r,4r)-4-[5-(1,3-thiazol-4-yl)-2H-indazol-2-yl]cyclohexyl}methyl) benzamide]
IC50: 0.12 µM

O=C(NC[C@H]1CC[C@H](n2cc3ccc(-n4cc(C(F)(F)F)cn4)cc3n2)CC1)c1cc(F)c(O)c(F)c1F [Example 11, 2,3,5-Trifluoro-4-hydroxy-N-{[(1r,4r)-4-{6-[4-(trifluoromethyl)-1H-pyrazol-1-yl]-2H-indazol-2-yl}cyclohexyl]methyl}benzamide, trifluoroacetate salt]
IC50: 0.24 µM

Cn1cc(-c2ccn3cc([C@H]4CC[C@H](CNC(=O)c5cc(F)c(O)c(F)c5F)CC4)nc3c2)cn1 [Example 30, 2,3,5-trifluoro-4-hydroxy-N-({(1r,4r)-4-[7-(1-methyl-1H-pyrazol-4-yl)imidazo[1,2-a]pyridin-2-yl]cyclohexyl}methyl) benzamide]
IC50: 0.36 µM

COc1ccc(-c2ccc3cn([C@H]4CC[C@H](CNC(=O)c5cc(F)c(O)c(F)c5)CC4)nc3c2)nc1 [Example 99, 3,5-difluoro-4-hydroxy-N-({(1r,4r)-4-[6-(5-methoxy-pyridin-2-yl)-2H-indazol-2-yl]cyclohexyl}methyl) benzamide, trifluoroacetate salt]
IC50: 0.22 µM

COc1cccc(-c2ccc3cn([C@H]4CC[C@H](CNC(=O)c5cc(F)c(O)c(F)c5)CC4)nc3c2)n1 [Example 116, 3,5-difluoro-4-hydroxy-N-({(1r,4r)-4-[6-(6-methoxy-pyridin-2-yl)-2H-indazol-2-yl]cyclohexyl}methyl) benzamide, trifluoroacetate salt]
IC50: 0.19 µM

O=C(NC[C@H]1CC[C@H](c2nc(-c3cnc(C(F)(F)F)cn3)no2)CC1)c1cc(F)c(O)cc1F [Example 149, 2,5-difluoro-4-hydroxy-N-{[(1r,4r)-4-{3-[5-(trifluoromethyl)pyrazin-2-yl]-1,2,4-oxadiazol-5-yl}cyclohexyl]methyl} benzamide]
IC50: 0.43 µM

O=C(NC[C@]12CC[C@](n3cc4ccc(-c5cncnc5)cc4n3)(CC1)CC2)c1cc(F)c(O)c(F)c1 [Example 206, 3,5-difluoro-4-hydroxy-N-({4-[6-(pyrimidin-5-yl)-2H-indazol-2-yl]bicyclo [2.2.2]octan-1-yl}methyl)benzamide]
IC50: 0.15 µM

O=C(NC[C@H]1CC[C@H](c2cn3cc(-c4cnn(C(F)F)c4)ccc3n2)CC1)c1cc(F)c(O)c(F)c1F [Example 167, N-{[(1r,4r)-4-{6-[1-(difluoromethyl)-1H-pyrazol-4-yl]imidazo [1,2-a]pyridin-2-yl}cyclohexyl]methyl}-2,3,5-trifluoro-4-hydroxy-benzamide, trifluoroacetate salt]
IC50: 0.2 µM

Cn1cc(-c2ccc3nn([C@H]4CC[C@H](CNC(=O)c5cc(F)c(O)c(F)c5)CC4)cc3c2)cn1 [Example 159, 3,5-difluoro-4-hydroxy-N-({(1r,4r)-4-[5-(1-methyl-1H-pyrazol-4-yl)-2H-indazol-2-yl]cyclohexyl}methyl) benzamide, trifluoroacetate salt]
IC50: 0.091 µM

Cc1cnc(-c2ccc3cn([C@H]4CC[C@H](CNC(=O)c5cc(F)c(O)c(F)c5)CC4)nc3c2)s1 [Example 115, 3,5-difluoro-4-hydroxy-N-({(1r,4r)-4-[6-(5-methyl-1,3-thiazol-2-yl)-2H-indazol-2-yl]cyclohexyl}methyl) benzamide]
IC50: 0.19 µM

O=C(NC[C@H]1CC[C@H](n2cc3ccc(-c4ccsn4)cc3n2)CC1)c1cc(F)c(O)c(F)c1 [Example 98, 3,5-difluoro-4-hydroxy-N-({(1r,4r)-4-[6-(1,2-thiazol-3-yl)-2H-indazol-2-yl]cyclohexyl}methyl) benzamide]
IC50: 0.11 µM

Cc1ccn(-c2ccc3cn([C@H]4CC[C@H](CNC(=O)c5cc(F)c(O)c(F)c5F)CC4)nc3c2)n1 [Example 162, 2,3,5-trifluoro-4-hydroxy-N-({(1r,4r)-4-[6-(3-methyl-1H-pyrazol-1-yl)-2H-indazol-2-yl]cyclohexyl}methyl) benzamide]
IC50: 0.31 µM

CC(C)c1ncc(-c2ccc3cn([C@H]4CC[C@H](CNC(=O)c5cc(F)c(O)c(F)c5)CC4)nc3c2)o1 [Example 121, 3,5-difluoro-4-hydroxy-N-{[(1r,4r)-4-{6-[2-(propan-2-yl)-1,3-oxazol-5-yl]-2H-indazol-2-yl}cyclohexyl]methyl} benzamide]
IC50: 0.15 µM

O=C(NC[C@H]1CC[C@H](n2cc3ccc(-c4ncc5c(n4)COC5)cc3n2)CC1)c1cc(F)c(O)c(F)c1 [Example 101, N-({(1r,4r)-4-[6-(5,7-dihydrofuro[3,4-d]pyrimidin-2-yl)-2H-indazol-2-yl]cyclohexyl}methyl)-3,5-difluoro-4-hydroxybenzamide]
IC50: 0.14 µM

Cn1ncc(-c2ccc3cn([C@H]4CC[C@H](CNC(=O)c5cc(F)c(O)c(F)c5)CC4)nc3c2)n1 [Example 92, 3,5-difluoro-4-hydroxy-N-({(1r,4r)-4-[6-(2-methyl-2H-1,2,3-triazol-4-yl)-2H-indazol-2-yl]cyclohexyl}methyl)benzamide]
IC50: 0.13 µM

O=C(NC[C@H]1CC[C@H](n2cc3ccc(-c4cccn5ncnc45)cc3n2)CC1)c1cc(F)c(O)c(F)c1 [Example 113, 3,5-difluoro-4-hydroxy-N-({(1r,4r)-4-[6-([1,2,4]triazolo[1,5-a]pyridin-8-yl)-2H-indazol-2-yl]cyclohexyl}methyl) benzamide, trifluoroacetate salt]
IC50: 0.32 µM

Cc1cccc(-c2ccc3cn([C@H]4CC[C@H](CNC(=O)c5cc(F)c(O)c(F)c5)CC4)nc3c2)n1 [Example 118, 3,5-difluoro-4-hydroxy-N-({(1r,4r)-4-[6-(6-methylpyridin-2-yl)-2H-indazol-2-yl]cyclohexyl}methyl) benzamide, trifluoroacetate salt]
IC50: 0.23 µM

N#Cc1cccc(-c2ccc3nn([C@H]4CC[C@H](CNC(=O)c5cc(F)c(O)c(F)c5)CC4)cc3c2)c1 [Example 156, N-({(1r,4r)-4-[5-(3-cyanophenyl)-2H-indazol-2-yl]cyclohexyl}methyl)-3,5-difluoro-4-hydroxybenzamide]
IC50: 0.17 µM

O=C(NC[C@H]1CC[C@H](n2cc3ccc(-c4ccn5ncnc5c4)cc3n2)CC1)c1cc(F)c(O)c(F)c1 [Example 119, 3,5-difluoro-4-hydroxy-N-({(1r,4r)-4-[6-([1,2,4]triazolo[1,5-a]pyridin-7-yl)-2H-indazol-2-yl]cyclo-hexyl}methyl) benzamide, trifluoroacetate salt]
IC50: 0.15 µM
